Literature values as cited in patent US20040167197A1, “Compositions, combinations, and methods for treating cardiovascular conditions and other associated conditions” (priority 2003, published 2004).

Tested on: rat model of cardiac hypertrophy and dysfunction

Q: For `COc1nccc(-c2c(-c3ccc(F)cc3)ncn2[C@H]2CC[C@H](O)CC2)n1` [trans-1-(4-hydroxycyclohexyl)-4-(4-fluorophenylmethoxypyridimidin-4-yl)imidazole], which hypertensive end-organ damage is on record?
A: Its hypertensive end-organ damage is “protected against”.

Q: And the “plasma tumor necrosis factor (TNF-α)” value?
A: The value was “reduced”.

Q: What about the survival of the same molecule?
A: The survival was “improved”.
